{"source": "paper PMC8980233", "about": "“Differentiating the Neuropharmacological Properties of Nicotinic Acetylcholine Receptor-Activating Alkaloids” (Frontiers in Pharmacology, 2022)", "key": {"[1]": {"tested_on": "zebrafish (Danio rerio; strain AB)", "assay": "Zebrafish novel tank test (NTT)", "method": "Adult male and female wild-type zebrafish were treated with the compounds for 20 min in a final volume of 50 ml in a 250-ml treatment beaker one fish at a time. The fish were briefly rinsed in fresh system water, and then immediately transferred to a trapezoidal tank (14.6 cm height x 5.5 cm width x 27.9 cm top length and x 23.6 cm bottom length) filled with 1.5 L system water. The behavior of the fish was monitored for the next 5 min by using the Noldus EthoVision XT system (Wageningen, Netherlands), with the camera placed approximately 1 m from the test tank. The part of the tank filled with water (11.5 cm height) was virtually divided into top, center, and bottom of equal heights (approximately 3.8 cm per segment) for the analysis. The average time spent at the top and bottom portions of the tank was analyzed to determine the anxiety-like behavior of fish. The average total distance travelled and freezing time were calculated to determine the effects of the compounds on the general behavior of fish. Freezing was defined by a complete cessation of movement except for gills and eyes ([Kalueff et al., 2013]). A minimum of 12 fish (6 females and 6 males) per condition were used for the study. The experimenter was blind to the test conditions.\nIf not, the dose was reduced until no obvious signs of tolerability problems were observed. […] The concentrations were calculated based on the free base molecular weight. Buspirone—a clinical anxiolytic drug used acutely and chronically to investigate the change in the anxiety-like behavior ([Maximino, et al., 2011]; [Maximino, et al., 2013])—was included as a positive control."}, "[2]": {"tested_on": "dopamine release from striatal synaptosomes", "assay": "In vitro [3H]dopamine release from crude striatal synaptosomes", "type": "biochemical, rat", "conditions": "for EC50: striatal synaptosomes", "method": "In brief, male Sprague Dawley rats (200–225 g) were terminated by cervical dislocation followed by decapitation. The striatums or hippocampi were dissected and homogenized in ice-cold 0.32 M sucrose using a Dounce homogenizer. The homogenates were centrifuged at 100 x g for 5 min to pellet cell debris. The supernatants were collected and centrifuged at 17,000 x g for 10 min at 4°C to pellet crude synaptosomes.\nThe [^3H]norepinephrine- or [^3H]dopamine-treated crude synaptosomes were loaded onto closed filter chambers containing Whatman® Grade GF/C Glass Microfiber filters (Sigma-Aldrich, Merck KGaA, Darmstadt, Germany) and placed in a superfusion system. […] To ensure an even flow over the synaptosomal bed, trapped air bubbles were removed from the filters prior to collection of the fractions. After a superfusion period of 40 min, three basal fractions (1.5 ml/fraction) were collected first, followed by three fractions (1.5 ml/fraction) containing the test compound. Two additional fractions were collected in the presence of 30 mM KCl to depolarize the synaptosomes. […] Once all fractions were collected, the filters holding the crude synaptosome samples were removed and dried overnight at room temperature. On the following day, the scintillation cocktail was added and the filters were counted to determine residual radioactivity.\nCompound-evoked release of neurotransmitters was calculated by subtracting the counts per minute (CPM) in the two basal fractions collected immediately prior to compound addition from those in the two fractions collected immediately following compound addition. The compound-evoked release was then expressed as a percentage of the basal release from that chamber. Potassium-evoked release was calculated by subtracting the CPM in the fraction immediately prior to KCl addition from the CPM in the […] immediately following potassium addition. Stimulated release was calculated as the percentage of basal release for that chamber. The increase in stimulated release above the baseline (no compound) release for that experimental run was determined, and the latter values were plotted on the graphs. Dose–response curves were determined using non-linear curve fitting in Prism (GraphPad Software, Inc, San Diego, CA, United States). All experiments were repeated at least three times."}, "[3]": {"target": "α4β2 nAChR (Homo sapiens, UniProt P17787+P43681)", "sequence (P43681 29-627 limits assumed)": "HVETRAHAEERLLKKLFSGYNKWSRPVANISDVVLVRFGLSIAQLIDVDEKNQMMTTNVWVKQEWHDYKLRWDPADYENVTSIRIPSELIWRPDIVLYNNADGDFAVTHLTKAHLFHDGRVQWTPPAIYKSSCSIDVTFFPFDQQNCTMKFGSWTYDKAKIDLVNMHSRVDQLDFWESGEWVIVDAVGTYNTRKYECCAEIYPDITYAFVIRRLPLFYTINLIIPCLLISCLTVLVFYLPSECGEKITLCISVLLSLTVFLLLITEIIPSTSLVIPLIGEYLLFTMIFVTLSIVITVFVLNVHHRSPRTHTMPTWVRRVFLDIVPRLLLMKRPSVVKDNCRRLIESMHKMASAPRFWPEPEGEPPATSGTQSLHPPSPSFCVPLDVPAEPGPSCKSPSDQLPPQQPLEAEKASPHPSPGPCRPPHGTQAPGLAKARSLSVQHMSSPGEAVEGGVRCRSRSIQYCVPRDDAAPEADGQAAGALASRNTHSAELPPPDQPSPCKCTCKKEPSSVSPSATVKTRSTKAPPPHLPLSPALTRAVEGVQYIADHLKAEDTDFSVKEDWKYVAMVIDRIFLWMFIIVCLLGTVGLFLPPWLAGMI", "sequence (P17787 26-502)": "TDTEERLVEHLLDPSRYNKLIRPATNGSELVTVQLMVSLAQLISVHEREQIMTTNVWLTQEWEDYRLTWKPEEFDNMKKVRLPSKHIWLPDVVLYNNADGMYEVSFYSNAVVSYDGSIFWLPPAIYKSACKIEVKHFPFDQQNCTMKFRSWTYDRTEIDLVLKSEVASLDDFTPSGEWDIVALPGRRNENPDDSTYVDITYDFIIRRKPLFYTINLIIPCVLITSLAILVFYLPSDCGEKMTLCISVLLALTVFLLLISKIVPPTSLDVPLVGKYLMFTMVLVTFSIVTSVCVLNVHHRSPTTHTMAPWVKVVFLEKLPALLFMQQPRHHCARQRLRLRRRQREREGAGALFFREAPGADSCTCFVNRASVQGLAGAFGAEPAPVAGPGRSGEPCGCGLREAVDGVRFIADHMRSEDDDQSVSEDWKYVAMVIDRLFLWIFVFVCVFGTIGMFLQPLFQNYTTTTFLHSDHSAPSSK", "assay": "nAChR functional assay, automated patch-clamp", "type": "cell-based", "method": "(§1) Electrophysiological responses were recorded using an automated patch-clamp Patchliner Octo® system (Nanion Technologies, Munich, Germany) equipped with two EPC-10 Quadro patch-clamp amplifiers (HEKA Elektronik, Lambrecht, Germany) as described by ([Alijevic et al., 2020]). In brief, Chinese hamster ovary (CHO) or human embryonic kidney-293 (HEK-293) cells stably expressing human nAChRs (Charles River Laboratories, Wilmington, MA, United States) were maintained in DMEM/F12 medium (Gibco, Thermo Fisher Scientific, Waltham, MA, United States) supplemented with 10% heat-inactivated fetal bovine serum (FBS; Gibco) and penicillin–streptomycin (100 U/mL and 0.1 mg/ml, respectively; Sigma-Aldrich, St. Louis, MO, United States) at 37°C in 5% CO2 and 70% humidity. The following selection antibiotics were used for the cell lines: G418 (0.25 mg/ml; Sigma-Aldrich) and Zeocin^TM (0.4 mg/ml; InvivoGen, San Diego, CA, United States) for α7/Ric3 nAChR and α3β4 nAChR cells; puromycin (8 μg/ml; InvivoGen) and hygromycin B (0.4 mg/ml; Gibco) for α4β2 nAChR cells; and G418 (0.5 mg/ml), puromycin (0.25 μg/ml), and hygromycin B (0.02 mg/ml) for α6/3β2/β3 nAChR cells. The cells were used for characterizing nAChR pharmacology, because no endogenous ionotropic nicotinic receptors are found ([Roncarati et al., 2008]; [Papke and Smith-Maxwell, 2009]; [Kirsch et al., 2016]; [Scheffel et al., 2018]). The subunit distributions in the cells have been previously described ([Alijevic et al., 2020]). The human nAChRs were selected due to the lack of commercially available nAChR expression systems for mouse or zebrafish. The translatability of findings between zebrafish and human nAChR activities have been previously reported ([Papke and Smith-Maxwell, 2009]; [Papke et al., 2012]; [Alijevic et al., 2020]).\n(§2) On the day of the experiment, nAChR-expressing cells were suspended in extracellular solution (in mM: 140 NaCl, 4KCl, one MgCl2, two CaCl2, five glucose, and 10 HEPES, adjusted to pH 7.4 with NaOH (298 mOsmol)), then placed in the Patchliner Octo® system. The internal solution contained in mM: 50 KCl, 60 kF, 10 NaCl, 20 EGTA, and 10 HEPES, adjusted to pH 7.2 with KOH (285 mOsmol). […] Data were analyzed using the Patchmaster software and corrected for leak current. The data acceptance criteria were as follows: seal resistance >100 MΩ; seal resistance loss variation <50%; access resistance <20 MΩ; and minimum current amplitude elicited by maximal effect concentration acetylcholine >50 pA. Offline data analysis was performed in OpenOffice™ (v4.1.2; The Apache Software Foundation, Wakefield, MA, United States). Data are presented as mean ± S.D. All experiments were performed at room temperature (24°C) and repeated at least three times. Igor Pro (v6.2.2.2; WaveMetrics, Lake Oswego, OR, United States) or Prism (v8.2.1) were used for assessing the concentration–response curves."}, "[4]": {"target": "α6/3β2β3 nAChR (Homo sapiens, UniProt P17787+P32297+Q15825)", "sequence (Q15825+P32297 fused with the stated changes)": "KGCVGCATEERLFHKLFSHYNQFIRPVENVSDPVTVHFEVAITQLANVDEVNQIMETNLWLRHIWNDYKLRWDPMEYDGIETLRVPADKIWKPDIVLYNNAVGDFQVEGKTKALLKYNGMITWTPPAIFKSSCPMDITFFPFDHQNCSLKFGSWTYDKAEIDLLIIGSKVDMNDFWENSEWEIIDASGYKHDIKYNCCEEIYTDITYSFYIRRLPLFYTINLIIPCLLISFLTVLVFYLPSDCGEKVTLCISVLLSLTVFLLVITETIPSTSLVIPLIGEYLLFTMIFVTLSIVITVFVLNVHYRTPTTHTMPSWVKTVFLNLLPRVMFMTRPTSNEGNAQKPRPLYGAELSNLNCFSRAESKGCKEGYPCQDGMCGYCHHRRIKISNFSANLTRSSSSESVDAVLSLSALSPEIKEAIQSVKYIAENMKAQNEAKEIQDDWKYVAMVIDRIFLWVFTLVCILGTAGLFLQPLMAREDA", "sequence (P17787 26-502)": "as the sequence (P17787 26-502) above", "sequence (Q05901 25-458 partner limits assumed)": "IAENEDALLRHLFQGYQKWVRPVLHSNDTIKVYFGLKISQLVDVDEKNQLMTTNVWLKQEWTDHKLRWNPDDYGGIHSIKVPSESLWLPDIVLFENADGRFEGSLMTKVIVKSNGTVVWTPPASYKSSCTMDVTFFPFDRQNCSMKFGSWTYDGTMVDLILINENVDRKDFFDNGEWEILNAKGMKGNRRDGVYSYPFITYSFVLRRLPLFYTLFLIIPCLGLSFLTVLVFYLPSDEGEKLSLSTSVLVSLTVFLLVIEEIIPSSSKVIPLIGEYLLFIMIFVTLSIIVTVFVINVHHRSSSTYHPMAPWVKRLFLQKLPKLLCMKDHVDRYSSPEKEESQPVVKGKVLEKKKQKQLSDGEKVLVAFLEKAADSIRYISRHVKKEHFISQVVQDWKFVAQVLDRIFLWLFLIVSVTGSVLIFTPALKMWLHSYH", "assay": "nAChR functional assay, automated patch-clamp", "type": "cell-based", "method": "as §1, §2"}, "[5]": {"conditions": "1, 3, and 10 mg/L, 20 min treatment"}, "[6]": {"conditions": "only at the highest dose tested (10 mg/L)"}}, "note": "Read-outs that look alike come from different tables or passages of the source.", "data": [{"compound": "CN1CCC[C@H]1c1cccnc1", "note": "[Nicotine, (-)-Nicotine]", "values": [{"measurement": "time spent at the bottom", "setting": "[1]; [5]", "result": "reduced the time spent at the bottom"}, {"measurement": "time spent at the top", "setting": "[1]; [5]", "result": "increased the time spent at the top"}, {"measurement": "freezing response", "setting": "[1]; 1 and 10 mg/L", "result": "no freezing response"}, {"measurement": "total distance traveled", "setting": "[1]; 1 and 10 mg/L", "result": "decreased total distance traveled"}, {"measurement": "EC50", "setting": "[2]", "result": 190, "unit": "nM"}, {"measurement": "agonist type at α4β2 nAChR", "setting": "[3]", "result": "potent full agonist"}, {"measurement": "agonist type at α6/3β2β3 nAChR", "setting": "[4]", "result": "potent full agonist"}]}, {"compound": "CN1C(=O)CC[C@H]1c1cccnc1", "note": "[Cotinine, (-)-cotinine]", "values": [{"measurement": "freezing time", "setting": "[1]; 100 mg/L", "result": "without affecting their freezing time"}, {"measurement": "total distance traveled", "setting": "[1]; 100 mg/L", "result": "reduced"}, {"measurement": "time spent at the bottom", "setting": "[1]; 100 mg/kg, 20 min treatment", "result": "spent less time at the bottom"}, {"measurement": "time spent at the top", "setting": "[1]; any doses (30, 100, and 300 mg/L)", "result": "not affected"}, {"measurement": "time spent at the bottom", "setting": "[1]; other concentrations (30 and 300 mg/L)", "result": "no effect"}, {"measurement": "concentration inducing anxiolytic-like effect, fold higher than nicotine", "setting": "[1]; zebrafish", "result": 100, "unit": "fold"}, {"measurement": "dopamine release", "setting": "[2]; at higher concentrations", "result": "20–30%"}, {"measurement": "EC50", "setting": "[3]; mean ± S.D.", "result": "> 100", "unit": "µM"}, {"measurement": "EC50", "setting": "[4]; mean ± S.D., read-out: α6/3β2β3 EC50", "result": "> 100", "unit": "µM"}]}, {"compound": "C1=CCC(c2cccnc2)NC1", "note": "(racemic) [Anatabine, (±)-Anatabine]", "values": [{"measurement": "total distance travelled", "setting": "[1]; 0.3 and 10 mg/L", "result": "reduced"}, {"measurement": "freezing time", "setting": "[1]; only at 0.3 mg/L", "result": "increased"}, {"measurement": "time spent at the bottom", "setting": "[1]; [6]", "result": "reduced the time spent at the bottom"}, {"measurement": "time spent at the top", "setting": "[1]; [6]", "result": "increased the time spent at the top"}, {"measurement": "EC50", "setting": "[2]", "result": 1760, "unit": "nM"}, {"measurement": "% of the full receptor activity, α4β2 nAChR", "setting": "[3]; preliminary, data not shown", "result": "~60", "unit": "%"}, {"measurement": "EC50", "setting": "[4]", "result": "3.6 ± 0.3", "unit": "µM"}, {"measurement": "partial activation of α6-containing nAChRs, % of nicotine", "setting": "[4]; preliminary data", "result": "approximately 67%"}, {"measurement": "% of the full receptor activity, α6/3β2β3 nAChR", "setting": "[4]; preliminary, data not shown", "result": "~70", "unit": "%"}]}]}
